Measured values from patent US7737155B2, “Nitrogen-containing heterocyclic compounds and methods of use thereof” (Schering Corporation, priority 2005, dated 2010).
pEC50: −log10 of the molar value.

Target: recombinant human nicotinic acid receptor (NAR) (Homo sapiens, UniProt Q8TDS4)
Assay: Nicotinic Acid Receptor Assay: inhibition of forskolin-stimulated cAMP accumulation in CHO cells (MesoScale Discovery cAMP kit)
Format: cell-based
Conditions: CHO cells expressing recombinant human NAR; forskolin-stimulated cAMP; read-out: NA EC50 camp
Procedure: The nicotinic acid receptor agonist activity of the inventive compounds was determined by following the inhibition of forskolin-stimulated cAMP accumulation in cells using the MesoScale Discovery cAMP detection kit following the manufacture's protocol. Briefly, Chinese Hamster Ovary (CHO) cells expressing recombinant human nicotinic acid receptor (NAR) were harvested enzymatically, washed 1× in phosphate buffered saline (PBS) and resuspended in PBS containing 0.5 mM IBMX at 3×10^6 cells/mL. Ten μL of cell suspension was added to each well of a 384-well plate which contained 10 μL of test compounds. Test compounds were diluted with PBS containing 6 μM of forskolin. Plates were incubated for 30 minutes at room temperature after the addition of cells. Lysis buffer containing cAMP-Tag was added to each well (10 μL/well) as per the manufacturer's protocol. Plates were then incubated from 45 minutes to overnight. Prior to reading, 10 μL of read buffer was added to each well, and the plate was read in a Sector 6000 plate imager. The signal was converted to cAMP concentration using a standard curve run on each plate.

Chain of recombinant human nicotinic acid receptor (NAR) (Q8TDS4 whole entry): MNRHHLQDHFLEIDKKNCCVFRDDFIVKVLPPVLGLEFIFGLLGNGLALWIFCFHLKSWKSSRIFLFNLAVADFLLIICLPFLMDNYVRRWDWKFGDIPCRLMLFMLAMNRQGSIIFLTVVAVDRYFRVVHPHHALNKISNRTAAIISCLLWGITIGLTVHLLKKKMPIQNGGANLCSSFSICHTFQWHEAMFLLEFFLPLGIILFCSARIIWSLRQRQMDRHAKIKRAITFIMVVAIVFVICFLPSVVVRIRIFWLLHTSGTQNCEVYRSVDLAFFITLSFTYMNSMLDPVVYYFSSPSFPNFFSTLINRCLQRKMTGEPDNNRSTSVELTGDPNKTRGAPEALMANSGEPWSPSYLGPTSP

pEC50 | Compound
< 6.00 | CCOc1ccc(-c2c(CCC3CCC3)c3c(=O)[nH]c(=O)[nH]c3oc2=O)cc1 [Compound 703]
6.00 to 7.00 | CCc1cc(=O)oc2nc(OCC#CCCOC)[nH]c(=O)c12 [Compound 664]
7.00 to 12.00 | CCc1cc(=O)oc2nc(OCCN(C)C)[nH]c(=O)c12 [Compound 652]
< 6.00 | CN(C)CCOc1nc2oc(=O)cc(Cc3cccc(F)c3)c2c(=O)[nH]1 [Compound 683]
6.00 to 7.00 | CCc1noc(C)c1COc1nc2oc(=O)cc(Cc3cccc(F)c3)c2c(=O)[nH]1 [Compound 685]
6.00 to 7.00 | CCc1cc(=O)oc2nc(OCc3ccncc3Cl)[nH]c(=O)c12 [Compound 629]
6.00 to 7.00 | CCc1cc(=O)oc2nc(OCCOc3c(OC)cccc3OC)[nH]c(=O)c12 [Compound 622]
< 6.00 | O=c1[nH]c(=O)c2c(CCC3CCC3)c(-c3ccc(F)cc3)c(=O)oc2[nH]1 [Compound 700]
7.00 to 12.00 | CCCCc1cc(=O)oc2nc(OCC#CC(C)O)[nH]c(=O)c12 (centres unmarked) [Compound 680]
< 6.00 | Cc1cc(=O)oc2nc(OCc3csc4ccccc34)[nH]c(=O)c12 [Compound 690]
< 6.00 | CCCCc1c(-c2cccc(OC)c2)c(=O)oc2[nH]c(=O)[nH]c(=O)c12 [Compound 707]
< 6.00 | CCc1cc(=O)oc2nc(OCc3ccccc3C#N)[nH]c(=O)c12 [Compound 611]
< 6.00 | CCOC(=O)NOc1nc2oc(=O)cc(CCC(C)C)c2c(=O)[nH]1 [Compound 694]
< 6.00 | CCc1cc(=O)oc2nc(OCc3ccnc(NC(=O)C(C)(C)C)c3)[nH]c(=O)c12 [Compound 653]
7.00 to 12.00 | CCc1cc(=O)oc2nc(OCC#Cc3ccccc3Cl)[nH]c(=O)c12 [Compound 623]
< 6.00 | CCc1cc(=O)oc2nc(OCc3cnoc3C)[nH]c(=O)c12 [Compound 668]
7.00 to 12.00 | CCCCCCc1cc(=O)oc2nc(ONC(=O)OCC)[nH]c(=O)c12 [Compound 692]
< 6.00 | CCCCc1cc(=O)oc2nc(OCc3ccccn3)[nH]c(=O)c12 [Compound 682]
6.00 to 7.00 | CCc1cc(=O)oc2nc(OC[C@H](O)c3ccccc3)[nH]c(=O)c12 [Compound 633]

Continued, compound first:

Compound | pEC50
O=c1[nH]c(=O)c2c(CCCOC3CCCC3)cc(=O)oc2[nH]1 [Compound 271] | 6.00 to 7.00
CC(C)(C)Cc1cc(=O)oc2[nH]c(=O)[nH]c(=O)c12 [Compound 240] | < 6.00
CCc1cc(=O)oc2nc(OCc3ccccc3-c3cccc(COC)c3)[nH]c(=O)c12 [Compound 549] | 6.00 to 7.00
CCc1cc(=O)oc2nc(OCc3sccc3-n3cccc3)[nH]c(=O)c12 [Compound 533] | < 6.00
CC(C)(C)CCCc1cc(=O)oc2[nH]c(=O)[nH]c(=O)c12 [Compound 262] | 7.00 to 12.00
Cc1cccc(COc2nc3oc(=O)cc(Cc4ccccc4)c3c(=O)[nH]2)n1 [Compound 609] | < 6.00
O=c1[nH]c(=O)c2c(CCCc3cn(Cc4ccccc4)nn3)cc(=O)oc2[nH]1 [Compound 251] | 6.00 to 7.00
CCc1cc(=O)oc2nc(OCCOC3CCCCC3)[nH]c(=O)c12 [Compound 610] | < 6.00
CCc1cc(=O)oc2nc(OCc3ccc(-c4ccccc4)cc3)[nH]c(=O)c12 [Compound 517] | < 6.00
CCc1cc(=O)oc2nc(OCc3cccc(C(F)(F)F)n3)[nH]c(=O)c12 [Compound 568] | 6.00 to 7.00
CCc1cc(=O)oc2nc(OCCOC3CCCC3)[nH]c(=O)c12 [Compound 606] | < 6.00
CCc1cc(=O)oc2nc(OCc3cc(C)c(OC)c(C)n3)[nH]c(=O)c12 [Compound 511] | < 6.00
CC(C)(C)CCCc1cc(=O)oc2[nH]c(=O)n(C3CCC3)c(=O)c12 [Compound 284] | 6.00 to 7.00
CCCOCCCc1cc(=O)oc2[nH]c(=O)[nH]c(=O)c12 [Compound 270] | 7.00 to 12.00
CCC(CC)CCc1cc(=O)oc2[nH]c(=O)[nH]c(=O)c12 [Compound 269] | 6.00 to 7.00
CCc1cc(=O)oc2nc(OCC3CCCCO3)[nH]c(=O)c12 (centres unmarked) [Compound 593] | < 6.00
CCc1cc(=O)oc2nc(OCc3cccc(-c4cccc5cccnc45)c3)[nH]c(=O)c12 [Compound 560] | < 6.00
CCC(C)CCc1cc(=O)oc2[nH]c(=O)[nH]c(=O)c12 (centres unmarked) [Compound 247] | 7.00 to 12.00
COC(=O)CCc1cc(=O)oc2[nH]c(=O)[nH]c(=O)c12 [Compound 216] | 6.00 to 7.00
O=c1cc(CCC2CCCC2)c2c(=O)[nH]c(=O)n(C3CCC3)c2o1 [Compound 242] | < 6.00

Compound | pEC50
C=COCCOc1nc2oc(=O)cc(CC)c2c(=O)[nH]1 [Compound 581] | < 6.00
CCc1cc(=O)oc2nc(OCc3cccc(-c4ccccc4F)c3)[nH]c(=O)c12 [Compound 559] | 6.00 to 7.00
O=c1cc(CCCc2cccs2)c2c(=O)n(CC3CC3)c(=O)[nH]c2o1 [Compound 256] | < 6.00
CCc1cc(=O)oc2nc(O[C@@H](C)c3ccc4ccccc4c3)[nH]c(=O)c12 [Compound 501] | 7.00 to 12.00
CCc1cc(=O)oc2nc(OCc3ccccc3-c3ccc(CO)cc3)[nH]c(=O)c12 [Compound 548] | 6.00 to 7.00
O=c1cc(CCC2CC2)c2c(=O)[nH]c(=O)n(C3CCC3)c2o1 [Compound 274] | 6.00 to 7.00
CCc1cc(=O)oc2nc(OC3CCSCC3)[nH]c(=O)c12 [Compound 605] | < 6.00
CCOC(=O)Cn1cc(CCCc2cc(=O)oc3[nH]c(=O)[nH]c(=O)c23)nn1 [Compound 250] | < 6.00
CC(C)CCc1cc(=O)oc2[nH]c(=O)n(C3CCC3)c(=O)c12 [Compound 245] | 7.00 to 12.00
CCc1cc(=O)oc2nc(OCc3ccc(-c4ccccc4)cc3F)[nH]c(=O)c12 [Compound 518] | 6.00 to 7.00
O=c1cc(CCCc2cccs2)c2c(=O)n(C3CCC3)c(=O)[nH]c2o1 [Compound 281] | 6.00 to 7.00
O=c1[nH]c(=O)c2c(CCC(C3CC3)C3CC3)cc(=O)oc2[nH]1 [Compound 293] | 6.00 to 7.00
CCc1cc(=O)oc2nc(OCc3ccc(Br)cn3)[nH]c(=O)c12 [Compound 536] | 6.00 to 7.00
O=c1[nH]c(=O)c2c(CCCc3cc(-c4cccc(C(F)(F)F)c4)no3)cc(=O)oc2[nH]1 [Compound 249] | 6.00 to 7.00
O=c1[nH]c(=O)c2c(CCCOc3ccccc3)cc(=O)oc2[nH]1 [Compound 208] | < 6.00
CCc1c(C#Cc2ccccc2)c(=O)oc2[nH]c(=O)[nH]c(=O)c12 [Compound 219] | < 6.00
CCn1c(=O)[nH]c2oc(=O)cc(C)c2c1=O [Compound 289] | < 6.00
CCc1cc(=O)oc2nc(OCc3ccccc3-n3ccnc3)[nH]c(=O)c12 [Compound 570] | 6.00 to 7.00
CCCC/C=C/c1c(CC)c2c(=O)[nH]c(=O)[nH]c2oc1=O [Compound 214] | < 6.00

Same assay, conditions: NA EC50 camp (nM), CHO cells expressing recombinant human NAR; forskolin-stimulated cAMP

Compound | EC50 [nM]
CCc1cc(=O)oc2nc(OCC#CC3CCCCC3)[nH]c(=O)c12 [Compound 638] | 100 to 1000
CCc1cc(=O)oc2nc(OCC#CCO)[nH]c(=O)c12 [Compound 631] | 100 to 1000

Same assay, conditions: NA EC50 camp, inhibition of forskolin-stimulated cAMP accumulation, CHO cells expressing recombinant human NAR

Compound | pEC50
CCCCc1cc(=O)oc2nc(C(F)F)[nH]c(=O)c12 [Compound 750] | 5.72
CCCCc1cc(=O)oc2nc(OCC#CC3CC3)[nH]c(=O)c12 [Compound 735] | 7.03

Same assay, conditions: inhibition of forskolin-stimulated cAMP accumulation, CHO cells expressing recombinant human NAR; read-out: NA EC50 camp

pEC50 | Compound
7.14 | CCC#CCOc1nc2oc(=O)cc(CCCC)c2c(=O)[nH]1 [Compound 734]
< 5.00 | COCCn1c(=O)[nH]c(=O)c2c(CCC3CC3)cc(=O)oc21 [Compound 801]
6.95 | O=c1cc(CCC2CC2)c2c(=O)[nH]c(OCC#CC3CC3)nc2o1 [Compound 722]
6.79 | CCC#CC(C)Oc1nc2oc(=O)cc(CCCC3CC3)c2c(=O)[nH]1 (centres unmarked) [Compound 718]
6.21 | CCCc1cc(=O)oc2[nH]c(=O)nc(OCCF)c12 [Compound 825]
6.75 | O=c1cc(CCCC2CC2)c2c(=O)n(CCF)c(=O)[nH]c2o1 [Compound 804]
5.25 | CCOn1c(=O)[nH]c2oc(=O)cc(CCC3CCC3)c2c1=O [Compound 777]
6.54 | CCCCc1cc(=O)oc2[nH]c(=O)n(C(F)F)c(=O)c12 [Compound 816]
6.31 | CSCCCc1cc(=O)oc2nc(CF)[nH]c(=O)c12 [Compound 751]
6.59 | CC#CCOc1nc2oc(=O)cc(CCCC3CC3)c2c(=O)[nH]1 [Compound 717]
6.66 | CCc1cc(=O)oc2nc(OCC#CCCOC)[nH]c(=O)c12 [Compound 726]
6.42 | CCc1cc(=O)oc2[nH]c(=O)n(OC)c(=O)c12 [Compound 768]
7.31 | COn1c(=O)[nH]c(=O)c2c(CCC3CCCC3)cc(=O)oc21 [Compound 773]
< 5.00 | CCCCc1cc(=O)oc2c1c(=O)[nH]c(=O)n2OCc1ccccc1 [Compound 798]
6.73 | CCCCc1cc(=O)oc2nc(CF)[nH]c(=O)c12 [Compound 809]
6.52 | CCCc1cc(=O)oc2[nH]c(=O)nc(OCF)c12 [Compound 832]
< 5.00 | Cc1cc(=O)oc2nc(CF)[nH]c(=O)c12 [Compound 810]
< 6.00 | CCCCc1cc(=O)oc2[nH]c(=O)n(N3CCOCC3)c(=O)c12 [Compound 797]
6.74 | O=c1cc(CCC2CCC2)c2c(=O)[nH]c(CF)nc2o1 [Compound 749]

Second part, the compound before the results:

Compound | pEC50
CC(C)(C)CCCc1cc(=O)oc2[nH]c(=O)[nH]c(=O)c12 [Compound 262] | 7.30
O=c1[nH]c(=O)c2c(CCCCC(F)(F)F)cc(=O)oc2[nH]1 [Compound 112] | 7.84
